# Patent US11219214B2, “Benzosultams and analogues and their use as fungicides” (Bayer CropScience Aktiengesellschaft, priority 2016, dated 2022)
# Like-named read-outs stand apart in the source and are kept apart here.
# Tests used:
# [1] = 0.1% aqueous formic acid and acetonitrile, gradient 10% to 95% acetonitrile
# Experimental: In table 1a, the log P values were determined in accordance with EEC Directive 79/831 Annex V.A8 by HPLC (High Performance Liquid Chromatography) on a reversed-phase column (C 18), using the method described below:
# Method C: temperature: 55° C.; mobile phases: 0.1% aqueous formic acid and acetonitrile; linear gradient from 10% acetonitrile to 95% acetonitrile.
# If more than one Log P value is available within the same method, all the values are given and separated by “;”.
# Pyricularia oryzae = experiment: microbe, parasite or virus in culture; assay type: cell-based; details: 120 h, read-out: Efficacy, 20 ppm of active ingredient, liquid culture, 5 days incubation, inhibition of fungal growth
# Leptnosphaeria nodorum = experiment: Example C: Leptnosphaeria nodorum in vitro cell test; assay type: cell-based; details: 144 h, liquid culture, 6 days incubation, inhibition of fungal growth, read-out: Efficacy; for inhibition of growth at 20 ppm: 20 ppm of active ingredient
# Experimental: Example C: Leptnosphaeria nodorum In Vitro Cell Test • Solvent: dimethyl sulfoxide (DMSO) • Culture medium: 14.6 g anhydrous D-glucose (VWR), 7.1 g Mycological Peptone (Oxoid), 1.4 g granulated Yeast Extract (Merck), QSP 1 liter • Inoculum: spore suspension Active ingredients were solubilized in DMSO and the solution used to prepare the required range of concentrations. […] A spore suspension of L. nodorum was prepared and diluted to the desired spore density. Active ingredients were evaluated for their ability to inhibit spore germination and mycelium growth in liquid culture assay. The compounds were added in the desired concentration to the culture medium with spores. After 6 days incubation, fungi-toxicity of compounds was determined by spectrometric measurement of mycelium growth. Inhibition of fungal growth was determined by comparing the absorbance values in wells containing the active ingredients with the absorbance in control wells without fungicides.
# [2] = Method C: HPLC reversed-phase C 18, 55° C.
SMILES,chromatographic logP ([1]; Method A: 40° C.),chromatographic logP ([1]; Method C: 55° C.),inhibition of growth at 20 ppm (Pyricularia oryzae) [%],further results
Fc1c(Cl)ccc2cc(I)cnc12 [II.02A],3.37,,,
"CC1Cc2ccccc2NS1(=O)=O (centres unmarked) [3-methyl-3,4-dihydro-1H-2,1-benzothiazine 2,2-dioxide]",,1.33,,
"CC1Cc2ccccc2N(c2cnc3ccccc3c2)S1(=O)=O (centres unmarked) [I.158, 3-methyl-1-(quinolin-3-yl)-3,4-dihydro-1H-2,1-benzothiazine 2,2-dioxide]",,2.58,,
Fc1cc2cc(I)cnc2cc1F [II.08A],3.15,,,
"CC1(C)CS(=O)(=O)N(c2cnc3ccccc3c2)c2ccccc21 [I.166, 4,4-dimethyl-1-(quinolin-3-yl)-3,4-dihydro-1H-2,1-benzothiazine 2,2-dioxide]",,2.88,90 to 100,
"O=S1(=O)CC(=NOCc2ccccc2)c2ccccc2N1c1cnc2ccccc2c1 [I.241, N-(benzyloxy)-1-(quinolin-3-yl)-1H-2,1-benzothiazin-4(3H)-imine 2,2-dioxide]",,3.94,70 to 79,"chromatographic logP [1, 2]: 3.94"
"CC1(C)c2ccccc2N(c2cnc3c(F)cccc3c2)S1(=O)=O [I.015, 3-(3,3-dimethyl-2,2-dioxido-2,1-benzothiazol-1(3H)-yl)-8-fluoroquinoline]",3.12,,90 to 100,inhibition of growth at 4 ppm (Leptnosphaeria nodorum): ≥ 80%; inhibition of growth at 20 ppm (Leptnosphaeria nodorum): 90 to 100%
"CC(C)(CS(=O)(=O)Nc1cnc2ccccc2c1)c1ccccc1Br [VIIIa.18, 2-(2-bromophenyl)-2-methyl-N-(quinolin-3-yl)propane-1-sulfonamide]",,2.98,,
"CC1(F)c2ccccc2N(c2cnc3c(F)c(F)ccc3c2)S(=O)(=O)C1(C)C (centres unmarked) [I.225, 1-(7,8-difluoroquinolin-3-yl)-4-fluoro-3,3,4-trimethyl-3,4-dihydro-1H-2,1-benzothiazine 2,2-dioxide]",,3.6,90 to 100,"inhibition of growth at 20 ppm (Leptnosphaeria nodorum): 90 to 100%; chromatographic logP [1, 2]: 3.6"
Fc1cc(F)c2cc(I)cnc2c1 [II.12A],3.31,,,
Cc1ccc2cc(I)cnc2c1F [II.03A],3.11,,,
O=S1(=O)Cc2c(F)cccc2N1 [III.01A],1.34,,,
Cc1ccc(F)c2ncc(I)cc12 [II.10A],3.06,,,
"CC1Cc2ccccc2N(c2cc3ccccc3[n+]([O-])c2)S1(=O)=O (centres unmarked) [I.162, 3-methyl-1-(1-oxidoquinolin-3-yl)-3,4-dihydro-1H-2,1-benzothiazine 2,2-dioxide]",,1.81,90 to 100,inhibition of growth at 20 ppm (Leptnosphaeria nodorum): 90 to 100%
"CC1(C)C(=O)c2ccccc2N(c2cnc3ccccc3c2)S1(=O)=O [I.156, 3,3-dimethyl-1-(quinolin-3-yl)-1H-2,1-benzothiazin-4(3H)-one 2,2-dioxide]",,2.93,90 to 100,inhibition of growth at 20 ppm (Leptnosphaeria nodorum): 70 to 79%
"C=C1c2ccccc2N(c2cnc3c(F)c(F)ccc3c2)S(=O)(=O)C1(C)C [I.219, 1-(7,8-difluoroquinolin-3-yl)-3,3-dimethyl-4-methylene-3,4-dihydro-1H-2,1-benzothiazine 2,2-dioxide]",,3.34,90 to 100,"inhibition of growth at 20 ppm (Leptnosphaeria nodorum): 90 to 100%; chromatographic logP [1, 2]: 3.34"
CC1(C)Cc2ccccc2NS1(=O)=O [III.06A],,1.6,,
N#Cc1cccc2cc(I)cnc12 [II.11A],2.54,,,
Fc1cc(Cl)cc2cc(I)cnc12 [II.09A],3.15,,,
"O=S1(=O)CCCc2ccccc2N1 [IIIc.02, 1,3,4,5-tetrahydro-2,1-benzothiazepine 2,2-dioxide]",,1.2,,
O=S1(=O)Nc2ccccc2CC12CC2 [III.07A],,1.49,,
FC(F)(F)c1cccc2cc(I)cnc12 [II.01A],3.11,,,

SMILES,chromatographic logP ([1]; Method A: 40° C.),chromatographic logP ([1]; Method C: 55° C.),inhibition of growth at 20 ppm (Pyricularia oryzae) [%],further results
Clc1ccc2cc(I)cnc2c1Cl [II.07A],3.83,,,
"CC1(C)C(F)(F)c2ccccc2N(c2cnc3ccccc3c2)S1(=O)=O [I.163, 4,4-difluoro-3,3-dimethyl-1-(quinolin-3-yl)-3,4-dihydro-1H-2,1-benzothiazine 2,2-dioxide]",,3.25,80 to 89,inhibition of growth at 20 ppm (Leptnosphaeria nodorum): 90 to 100%
"O=C1c2ccccc2N(c2cnc3ccccc3c2)S(=O)(=O)C1(Cl)Cl [I.239, 3,3-dichloro-1-(quinolin-3-yl)-1H-2,1-benzothiazin-4(3H)-one 2,2-dioxide]",,3.49,,"chromatographic logP [1, 2]: 3.49"
Fc1cc(F)c2ncc(I)cc2c1 [II.05A],2.88,,,
"CC1C(C)(C)c2ccccc2N(c2cnc3ccccc3c2)S1(=O)=O (centres unmarked) [I.173, 3,4,4-trimethyl-1-(quinolin-3-yl)-3,4-dihydro-1H-2,1-benzothiazine 2,2-dioxide]",,3.53,90 to 100,inhibition of growth at 20 ppm (Leptnosphaeria nodorum): 90 to 100%
"COC(=O)c1ccccc1N(c1cnc2ccccc2c1)S(C)(=O)=O [Xa.02, methyl 2-[(methylsulfonyl)(quinolin-3-yl)amino]benzoate]",,2.17,,
O=S1(=O)Cc2c(cccc2C(F)(F)F)N1 [III.02A],1.99,,,
COC(=O)c1ccccc1Nc1cnc2ccccc2c1 [methyl 2-(quinolin-3-ylamino)benzoate],,2.96,,
O=S1(=O)Cc2cc(C(F)(F)F)ccc2N1 [III.03A],1.95,,,
Fc1ccc(F)c2ncc(I)cc12 [II.06A],2.94,,,
"O=S1(=O)Cc2ccccc2N1c1cnc2c(F)cccc2c1 [I.018, 3-(2,2-dioxido-2,1-benzothiazol-1(3H)-yl)-8-fluoroquinoline]",2.52,,,inhibition of growth at 20 ppm (Leptnosphaeria nodorum): 90 to 100%
"O=S1(=O)C=CCc2ccccc2N1Cc1ccccc1 [V.01, 1-benzyl-1,5-dihydro-2,1-benzothiazepine 2,2-dioxide]",,6.01,,
"CC1(C)c2ccccc2N(c2cnc3ccccc3c2)S(=O)(=O)C1(C)C [I.172, 3,3,4,4-tetramethyl-1-(quinolin-3-yl)-3,4-dihydro-1H-2,1-benzothiazine 2,2-dioxide]",,3.85,90 to 100,inhibition of growth at 20 ppm (Leptnosphaeria nodorum): 90 to 100%
O=S1(=O)N(Cc2ccccc2)c2ccccc2CC12CC2 [IV.01A],,3.19,,
"CC1(OCc2ccccc2)c2ccccc2N(c2cnc3ccccc3c2)S(=O)(=O)C1(C)C (centres unmarked) [I.250, 4-(benzyloxy)-3,3,4-trimethyl-1-(quinolin-3-yl)-3,4-dihydro-1H-2,1-benzothiazine 2,2-dioxide]",,4.04,80 to 89,inhibition of growth at 20 ppm (Leptnosphaeria nodorum): 90 to 100%
"COC1N(c2cnc3c(F)cccc3c2)c2ccccc2C1(C)C (centres unmarked) [CMP1, 8-fluoro-3-(2-methoxy-3,3-dimethyl-2,3-dihydro-1H-indol-1-yl)quinoline, reference compound]",,,7,inhibition of growth at 4 ppm (Leptnosphaeria nodorum): 0%; inhibition of growth at 20 ppm (Leptnosphaeria nodorum): 5%
N#Cc1cccc2c1CS(=O)(=O)N2 [III.05A],1.08,,,
N#Cc1ccc2ncc(I)cc2c1 [II.04A],2.5,,,
"O=C1CS(=O)(=O)N(c2cnc3ccccc3c2)c2ccccc21 [I.159, 1-(quinolin-3-yl)-1H-2,1-benzothiazin-4(3H)-one 2,2-dioxide]",,2.28,,
"CC1(O)c2ccccc2N(c2cnc3ccccc3c2)S(=O)(=O)C1(C)C (centres unmarked) [I.213, 3,3,4-trimethyl-1-(quinolin-3-yl)-3,4-dihydro-1H-2,1-benzothiazin-4-ol 2,2-dioxide]",,2.46,80 to 89,"inhibition of growth at 20 ppm (Leptnosphaeria nodorum): 80 to 89%; chromatographic logP [1, 2]: 2.46"
O=S1(=O)Cc2c(cccc2OC(F)(F)F)N1 [III.04A],2.11,,,
